Measurements published in the supplement of paper PMC10307832.

How the values were obtained:
Experiment in all cases: relative viability (nuclei count vs DMSO), 5 days (fraction); higher = more cells survive
[1] = system: A549
Method in brief: (§1)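 A single step with final 0.05% Triton X-100, 1% formaldehyde and 1 ug/ml Hoechst fixed the cells and stained nuclei 5 days after treatment. Lung cancer cell lines in 1536-well plates had been treated by pin tool the day after seeding with one drug alone or a fixed anchor-drug dose plus five library-drug doses (not always all listed) in √10 steps, and nuclei were counted on 4× images. Relative viability is the ratio of nuclei in treated wells to nuclei in vehicle wells, taken as the median of duplicate plates.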

[2] = system: HCC-78
Method in brief: as §1

[3] = system: NCI-H1623
Method in brief: as §1

[4] = system: NCI-H2009
Method in brief: as §1

[5] = system: NCI-H2342
Method in brief: as §1

[6] = system: NCI-H358
Method in brief: as §1

[7] = system: NCI-H460
Method in brief: as §1

[8] = system: NCI-H522
Method in brief: as §1

[9] = system: NCI-H661
Method in brief: as §1

Question: For `COc1cc2nccc(Oc3ccc(NC(=O)Nc4cc(C)on4)c(Cl)c3)c2cc1OC` [Tivozanib] + N=C(N)NC(=N)NCCc1ccccc1 [Phenformin] (partner 250 µM), which relative viability ([1]; first compound 0.005 µM) is on record?
Answer: The relative viability was 0.171.

Question: And the relative viability ([1]; first compound 0.01581 µM)?
Answer: Its relative viability is 0.163.

Question: And the relative viability ([1]; first compound 0.05 µM)?
Answer: The relative viability was 0.19.

Question: And the relative viability ([1]; first compound 0.1581 µM)?
Answer: The relative viability was 0.124.

Question: What about the relative viability ([1]; first compound 0.5 µM) of the same compound?
Answer: Its relative viability is 0.209.

Question: What about the relative viability ([2]; first compound 0.005 µM) of the same compound?
Answer: The relative viability was 0.619.

Question: What about the relative viability ([2]; first compound 0.01581 µM) of the same compound?
Answer: Its relative viability is 0.658.

Question: And the relative viability ([2]; first compound 0.05 µM)?
Answer: Its relative viability is 0.85.

Question: What about the relative viability ([2]; first compound 0.1581 µM) of the same compound?
Answer: Its relative viability is 0.529.

Question: What about the relative viability ([2]; first compound 0.5 µM) of the same compound?
Answer: Its relative viability is 0.655.

Question: And the relative viability ([3]; first compound 0.005 µM)?
Answer: Its relative viability is 0.582.

Question: And the relative viability ([3]; first compound 0.01581 µM)?
Answer: Its relative viability is 0.622.

Question: And the relative viability ([3]; first compound 0.05 µM)?
Answer: Its relative viability is 0.588.

Question: What about the relative viability ([3]; first compound 0.5 µM) of the same compound?
Answer: The relative viability was 0.607.

Question: What about the relative viability ([4]; first compound 0.005 µM) of the same compound?
Answer: The relative viability was 0.448.

Question: And the relative viability ([4]; first compound 0.01581 µM)?
Answer: The relative viability was 0.473.

Question: What about the relative viability ([4]; first compound 0.05 µM) of the same compound?
Answer: The relative viability was 0.453.

Question: What about the relative viability ([4]; first compound 0.1581 µM) of the same compound?
Answer: Its relative viability is 0.478.

Question: And the relative viability ([4]; first compound 0.5 µM)?
Answer: Its relative viability is 0.344.

Question: And the relative viability ([5]; first compound 0.005 µM)?
Answer: The relative viability was 0.554.

Question: What about the relative viability ([5]; first compound 0.01581 µM) of the same compound?
Answer: Its relative viability is 0.585.

Question: And the relative viability ([5]; first compound 0.05 µM)?
Answer: The relative viability was 0.59.

Question: What about the relative viability ([5]; first compound 0.5 µM) of the same compound?
Answer: The relative viability was 0.632.

Question: What about the relative viability ([6]; first compound 0.005 µM) of the same compound?
Answer: Its relative viability is 0.306.

Question: And the relative viability ([6]; first compound 0.01581 µM)?
Answer: The relative viability was 0.265.

Question: What about the relative viability ([6]; first compound 0.05 µM) of the same compound?
Answer: The relative viability was 0.411.

Question: And the relative viability ([6]; first compound 0.1581 µM)?
Answer: The relative viability was 0.301.

Question: What about the relative viability ([6]; first compound 0.5 µM) of the same compound?
Answer: Its relative viability is 0.447.

Question: What about the relative viability ([7]; first compound 0.005 µM) of the same compound?
Answer: The relative viability was 0.491.

Question: And the relative viability ([7]; first compound 0.01581 µM)?
Answer: Its relative viability is 0.537.

Question: And the relative viability ([7]; first compound 0.05 µM)?
Answer: Its relative viability is 0.509.

Question: And the relative viability ([7]; first compound 0.1581 µM)?
Answer: Its relative viability is 0.547.

Question: What about the relative viability ([7]; first compound 0.5 µM) of the same compound?
Answer: The relative viability was 0.503.

Question: And the relative viability ([8]; first compound 0.005 µM)?
Answer: Its relative viability is 0.595.

Question: What about the relative viability ([8]; first compound 0.01581 µM) of the same compound?
Answer: Its relative viability is 0.73.

Question: And the relative viability ([8]; first compound 0.05 µM)?
Answer: The relative viability was 0.593.

Question: And the relative viability ([8]; first compound 0.1581 µM)?
Answer: The relative viability was 0.619.

Question: And the relative viability ([8]; first compound 0.5 µM)?
Answer: The relative viability was 0.705.

Question: And the relative viability ([9]; first compound 0.005 µM)?
Answer: Its relative viability is 0.264.

Question: What about the relative viability ([9]; first compound 0.01581 µM) of the same compound?
Answer: The relative viability was 0.277.

Question: And the relative viability ([9]; first compound 0.05 µM)?
Answer: The relative viability was 0.277.

Question: And the relative viability ([9]; first compound 0.1581 µM)?
Answer: The relative viability was 0.278.

Question: And the relative viability ([9]; first compound 0.5 µM)?
Answer: Its relative viability is 0.249.

Question: For `Nc1ccn([C@@H]2O[C@H](CO)[C@@H](O)[C@@H]2O)c(=O)n1` [Cytarabine] + Cc1nc(Nc2ncc(C(=O)Nc3c(C)cccc3Cl)s2)cc(N2CCN(CCO)CC2)n1 [Dasatinib] (partner 0.075 µM), which relative viability ([2]; first compound 0.005 µM) is on record?
Answer: Its relative viability is 0.585.

Question: And the relative viability ([2]; first compound 0.01581 µM)?
Answer: Its relative viability is 0.363.

Question: What about the relative viability ([2]; first compound 0.05 µM) of the same compound?
Answer: Its relative viability is 0.27.

Question: What about the relative viability ([2]; first compound 0.1581 µM) of the same compound?
Answer: Its relative viability is 0.228.

Question: And the relative viability ([2]; first compound 0.5 µM)?
Answer: Its relative viability is 0.208.

Question: And the relative viability ([3]; first compound 0.005 µM)?
Answer: The relative viability was 0.479.

Question: What about the relative viability ([3]; first compound 0.01581 µM) of the same compound?
Answer: Its relative viability is 0.449.

Question: What about the relative viability ([3]; first compound 0.05 µM) of the same compound?
Answer: Its relative viability is 0.286.

Question: And the relative viability ([3]; first compound 0.1581 µM)?
Answer: Its relative viability is 0.471.

Question: And the relative viability ([3]; first compound 0.5 µM)?
Answer: Its relative viability is 0.291.

Question: And the relative viability ([4]; first compound 0.005 µM)?
Answer: The relative viability was 0.304.

Question: What about the relative viability ([4]; first compound 0.01581 µM) of the same compound?
Answer: Its relative viability is 0.275.

Question: What about the relative viability ([4]; first compound 0.05 µM) of the same compound?
Answer: The relative viability was 0.295.

Question: What about the relative viability ([4]; first compound 0.1581 µM) of the same compound?
Answer: The relative viability was 0.192.

Question: And the relative viability ([4]; first compound 0.5 µM)?
Answer: Its relative viability is 0.146.

Question: And the relative viability ([5]; first compound 0.005 µM)?
Answer: Its relative viability is 0.309.

Question: What about the relative viability ([5]; first compound 0.01581 µM) of the same compound?
Answer: The relative viability was 0.295.

Question: What about the relative viability ([5]; first compound 0.05 µM) of the same compound?
Answer: Its relative viability is 0.262.

Question: What about the relative viability ([5]; first compound 0.1581 µM) of the same compound?
Answer: The relative viability was 0.257.

Question: What about the relative viability ([5]; first compound 0.5 µM) of the same compound?
Answer: The relative viability was 0.277.

Question: What about the relative viability ([6]; first compound 0.005 µM) of the same compound?
Answer: The relative viability was 0.206.

Question: What about the relative viability ([6]; first compound 0.01581 µM) of the same compound?
Answer: The relative viability was 0.167.

Question: And the relative viability ([6]; first compound 0.05 µM)?
Answer: Its relative viability is 0.131.

Question: What about the relative viability ([6]; first compound 0.1581 µM) of the same compound?
Answer: Its relative viability is 0.0707.

Question: What about the relative viability ([6]; first compound 0.5 µM) of the same compound?
Answer: The relative viability was 0.0702.

Question: What about the relative viability ([7]; first compound 0.005 µM) of the same compound?
Answer: The relative viability was 0.394.

Question: And the relative viability ([7]; first compound 0.01581 µM)?
Answer: The relative viability was 0.259.

Question: What about the relative viability ([7]; first compound 0.05 µM) of the same compound?
Answer: Its relative viability is 0.105.

Question: What about the relative viability ([7]; first compound 0.1581 µM) of the same compound?
Answer: Its relative viability is 0.0311.

Question: And the relative viability ([7]; first compound 0.5 µM)?
Answer: Its relative viability is 0.0213.

Question: And the relative viability ([8]; first compound 0.005 µM)?
Answer: The relative viability was 0.935.

Question: What about the relative viability ([8]; first compound 0.01581 µM) of the same compound?
Answer: Its relative viability is 0.802.

Question: And the relative viability ([8]; first compound 0.05 µM)?
Answer: Its relative viability is 0.769.

Question: And the relative viability ([8]; first compound 0.1581 µM)?
Answer: Its relative viability is 0.562.

Question: What about the relative viability ([8]; first compound 0.5 µM) of the same compound?
Answer: Its relative viability is 0.55.

Question: And the relative viability ([9]; first compound 0.005 µM)?
Answer: Its relative viability is 0.636.

Question: What about the relative viability ([9]; first compound 0.01581 µM) of the same compound?
Answer: The relative viability was 0.529.

Question: And the relative viability ([9]; first compound 0.05 µM)?
Answer: The relative viability was 0.516.

Question: And the relative viability ([9]; first compound 0.1581 µM)?
Answer: The relative viability was 0.358.

Question: What about the relative viability ([9]; first compound 0.5 µM) of the same compound?
Answer: Its relative viability is 0.283.
